# Measured values published in patent US5985874A, “Substituted morpholine derivative and its use as a therapeutic agent” (Merck Sharp & Dohme Ltd., priority 1998, dated 1999).
# Assays:
# NK1 receptor = NK1 receptor (Homo sapiens, UniProt P25103); experiment: NK1 receptor test by the methods of WO 93/01165 (pages 36 to 39); type: binding; conditions: test methods of WO 93/01165, pages 36 to 39
# Method: The compound of this invention was tested by the methods set out at pages 36 to 39 of International Patent Specification No. WO 93/01165.
# cisplatin-induced emesis = experiment: ferret model of cisplatin-induced emesis (Tattersall et al, Eur. J. Pharmacol. 1993); type: in vivo
# Chain of NK1 receptor (P25103 whole entry): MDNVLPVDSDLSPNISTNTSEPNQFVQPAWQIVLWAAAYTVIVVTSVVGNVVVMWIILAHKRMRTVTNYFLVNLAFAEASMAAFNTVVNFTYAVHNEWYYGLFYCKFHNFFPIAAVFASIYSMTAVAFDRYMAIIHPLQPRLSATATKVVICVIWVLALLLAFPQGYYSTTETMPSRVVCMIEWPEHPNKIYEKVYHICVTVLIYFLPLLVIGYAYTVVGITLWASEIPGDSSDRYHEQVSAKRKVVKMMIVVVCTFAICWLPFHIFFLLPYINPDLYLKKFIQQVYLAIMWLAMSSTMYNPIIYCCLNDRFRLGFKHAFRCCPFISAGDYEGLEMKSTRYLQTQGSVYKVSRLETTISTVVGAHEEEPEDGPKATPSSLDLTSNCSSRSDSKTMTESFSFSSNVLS
smiles,measurement,setting,value
"Cn1cnc(CN2CCO[C@H](O[C@H](CO)c3cc(C(F)(F)F)cc(C(F)(F)F)c3)[C@@H]2c2ccc(F)cc2)n1 [Example 1, 2(R)-(1-(3,5-Bis(trifluoromethyl)phenyl)-2(S)-hydroxyethoxy)-3(S)-(4-fluorophenyl)-4-((1-methyl-1,2,4-triazol-3-yl)methylene)morpholine]",IC50,NK1 receptor,< 1 nM
same,retching and vomiting induced by cisplatin,cisplatin-induced emesis,attenuate the retching and vomiting induced by cisplatin
